The record followed here is patent US11299503B2, “Compound, coating composition comprising the same, organic light emitting device using the same and method for manufacturing the same” (LG Chem, Ltd., priority 2018, dated 2022).

This data set in a line: Solubility in toluene, precipitate check by tyndall effect. It is filed as physicochemical. The settings on record: toluene 100 ml, left 30 minutes at room temperature (25° C.), dissolved amount measured. How it is done: In addition, Compound BD12, Compound BD24, Compound BD30, Compound BD38 and Compound C used in Example 1 to Example 4 and Comparative Example 1 were each introduced to a solvent (toluene 100 ml), and then left unattended for 30 minutes at room temperature (25° C.). After that, laser was passed through the solution to determine whether precipitates were formed through a […] effect, and the dissolved amount was measured.

As to `CC(C)c1ccc([Si](c2ccc(C(C)C)cc2)(c2ccc(C(C)C)cc2)c2ccc(N(c3cccc(-c4cccc([Si](c5ccc(C(C)C)cc5)(c5ccc(C(C)C)cc5)c5ccc(C(C)C)cc5)c4)c3)c3cc4c5ccccc5c(N(c5ccc([Si](c6ccc(C(C)C)cc6)(c6ccc(C(C)C)cc6)c6ccc(C(C)C)cc6)cc5)c5cccc(-c6cccc([Si](c7ccc(C(C)C)cc7)(c7ccc(C(C)C)cc7)c7ccc(C(C)C)cc7)c6)c5)cc4c4ccccc34)cc2)cc1` [BD30], the Solubility is 15 wt %.
With `c1ccc([Si](c2ccccc2)(c2ccccc2)c2cccc(-c3ccccc3N(c3cccc([Si](c4ccccc4)(c4ccccc4)c4ccccc4)c3)c3cc4c5ccccc5c(N(c5cccc([Si](c6ccccc6)(c6ccccc6)c6ccccc6)c5)c5ccccc5-c5cccc([Si](c6ccccc6)(c6ccccc6)c6ccccc6)c5)cc4c4ccccc34)c2)cc1` [BD12] the figure was 10 wt %; with `CC(C)c1ccc([Si](c2ccc(C(C)C)cc2)(c2ccc(C(C)C)cc2)c2ccc(N(c3ccc(-c4cc5c6ccccc6c(-c6ccc(N(c7ccc([Si](c8ccc(C(C)C)cc8)(c8ccc(C(C)C)cc8)c8ccc(C(C)C)cc8)cc7)c7cccc(-c8cccc([Si](c9ccc(C(C)C)cc9)(c9ccc(C(C)C)cc9)c9ccc(C(C)C)cc9)c8)c7)cc6)cc5c5ccccc45)cc3)c3cccc(-c4cccc([Si](c5ccc(C(C)C)cc5)(c5ccc(C(C)C)cc5)c5ccc(C(C)C)cc5)c4)c3)cc2)cc1` [BD38], 15 wt %.
Regarding `c1ccc([Si](c2ccccc2)(c2ccccc2)c2cccc(-c3ccccc3N(c3ccc(-c4cc5c6ccccc6c(-c6ccc(N(c7cccc([Si](c8ccccc8)(c8ccccc8)c8ccccc8)c7)c7ccccc7-c7cccc([Si](c8ccccc8)(c8ccccc8)c8ccccc8)c7)cc6)cc5c5ccccc45)cc3)c3cccc([Si](c4ccccc4)(c4ccccc4)c4ccccc4)c3)c2)cc1` [BD24], the Solubility is reported as 10 wt %.
With `c1ccc(-c2ccc(N(c3ccccc3)c3cc4c5ccccc5c(N(c5ccccc5)c5ccc(-c6ccccc6)cc5)cc4c4ccccc34)cc2)cc1` [Compound C, reference compound] the figure was 0.1 wt %.
